Reference: ChEMBL document CHEMBL5120891, “Beyond Proteolysis-Targeting Chimeric Molecules: Designing Heterobifunctional Molecules Based on Functional Effectors” (J Med Chem, 2022)

Target: T1, Macrophage migration inhibitory factor (Homo sapiens) (UniProt P14174)
T1 sequence (whole entry): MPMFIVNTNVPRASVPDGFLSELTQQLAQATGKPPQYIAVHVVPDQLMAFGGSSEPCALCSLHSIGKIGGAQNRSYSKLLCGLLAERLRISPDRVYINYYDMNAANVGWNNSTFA
Experiment: LYTAC activity at ASGPR/MIF (unknown origin) by cell based assay

**Q.** Which Activity does the source give for CC(=O)N[C@H]1[C@H](OCCOCCOCCNC(=O)CCOCC(COCCC(=O)NCCOCCOCCO[C@@H]2O[C@H](CO)[C@H](O)[C@H](O)[C@H]2NC(C)=O)(COCCC(=O)NCCOCCOCCO[C@@H]2O[C@H](CO)[C@H](O)[C@H](O)[C@H]2NC(C)=O)NC(=O)CNC(=O)CCCOc2ccc3nc(-c4cn(-c5ccc(O)c(F)c5)nn4)ccc3c2)O[C@H](CO)[C@H](O)[C@@H]1O here?
**A.** > 1 µM
